# Data: US20050137255A1, “Crystalline escitalopram hydrobromide and methods for preparing the same” (H. Lundbeck A/S, priority 2002, published 2005)
# Entries after “also recorded” stand apart in the source; their conditions may differ. Counter-ions that a name gives are not always drawn.
# Columns and labels:
# Type in all cases: physicochemical
# [1] = Dynamic vapor sorption (DVS) of Form I
# [2] = Thermogravimetric analysis (TGA) of Form I; details: heated 10°/min
# Description: The sample (1-5 mg) was heated 10°/min. on a TA Instruments TGA 2950 (available from TA Instruments of New Castle, Del.). No weight loss (<0.1%) was observed up to 150° C. Decomposition began at approximately 240° C.
# [3] = Exposure of crystalline material to air (hygroscopicity); details: sample exposed to air
# [4] = Stability (stated property)
smiles,measurement,setting,value
"CN(C)CCC[C@@]1(c2ccc(F)cc2)OCc2cc(C#N)ccc21 [Form I, (S)-1-[3-(dimethylamino)propyl]-1-(4-fluorophenyl)-1,3-dihydro-5-isobenzofuran carbonitrile hydrobromide]",hygroscopicity,[1]; after water uptake at 80% relative humidity,very hygroscopic
same,water absorbed,"[1]; at 80% relative humidity, corresponds to 14%",about 3.6 mol-equivalent of water
same,water absorbed,[1]; at 95% relative humidity,~9 mol-equivalent of water
same,water absorbed,"[1]; first run, at 80% relative humidity",14%
same,water absorbed,"[1]; first run, until the relative humidity exceeded 70%",no water was absorbed
same,hygroscopicity,"[1]; relative humidity less than (about) 70%, hydrobromide",not hygroscopic; also recorded: non-hygroscopic
same,decomposition began,[2],approximately 240 °C
same,weight loss,[2]; up to 150° C.,< 0.1%
same,hygroscopicity,[3],non-hygroscopic
same,stability,[4],stable
